According to patent US12569498B2, “Methods and compositions for the prevention and treatment of ischemia reperfusion injury and infection” (CHILDREN'S NATIONAL MEDICAL CENTER, priority 2019, dated 2026):
“Also recorded” adds a separate entry of the source.

Legend:
[1] = literature, cited from earlier work; for testicular myeloperoxidase activity: acutely; for testicular myeloperoxidase activity / long term spermatogenesis: animal models of testicular torsion
[2] = tested on: CFT073 uropathogenic Escherichia coli (UPEC); settings: kidneys harvested after the final dose of antibiotics; ceftriaxone 250 mg/kg s.c. twice daily for 5 days
Method: As previously described, female C3H/HeOuJ mice were utilized due to a high incidence of vesicoureteral reflux (VUR) (Li 2017; Murawski 2010; Bowen 2013) and reliable creation of pyelonephritis following bladder inoculation. To initiate pyelonephritis, the bladder was catheterized with a 24-gauge angiocatheter and a total volume of 100 μL of a phosphate-buffered saline containing 108 colony forming units (CFU) of CFT073 uropathogenic Escherichia coli (UPEC) was then instilled. Following the initial bladder inoculation, pyelonephritis was allowed to progress untreated for 5 days.
Following the initial 5-day incubation period, 2 mice were sacrificed to confirm infection. The remaining mice were then treated with ceftriaxone alone (control) or ceftriaxone with varenicline (treatment). All mice received 250 mg/kg of subcutaneous ceftriaxone administered twice daily for a period of 5 days. Animals in the treatment group also received a concurrent twice-daily dose of intraperitoneal varenicline (1 mg/kg) during the first 48 hours of treatment. […] Animals were sacrificed at 14 days following the initial bladder inoculation to assess short-term outcomes, while long-term outcomes were assessed 30 days following initial bladder inoculation.

[3] = Renal scar formation and trichrome collagen quantification after acute pyelonephritis; format: in vivo, C3H/HeOuJ mice; settings: 21 days following completion of antibiotic therapy; varenicline plus ceftriaxone vs ceftriaxone alone; p=0.001
Method: To initiate pyelonephritis, the bladder was catheterized with a 24-gauge angiocatheter and a total volume of 100 μL of a phosphate-buffered saline containing […] colony forming units (CFU) of CFT073 uropathogenic Escherichia coli (UPEC) was then instilled.
Tissues were preserved in formalin for 72 hours then stored in ethanol. Sections were cut to a 5 μm thickness and stained with H&E or Masson trichrome. Photographs were obtained at 20× resolution with Olympus VS120 virtual slide microscope system. The images were then analyzed with ImageJ Fiji software in order to quantify collagen deposition as previously described (Chen 2017). As collagen deposition would be expected as long-term sequelae of IRI, the trichrome stains of the long-term specimen were examined. All artifacts from the staining process as well as gross collecting system were cropped from these images prior to analysis. A color deconvolution plugin was used to separate the trichrome images into the separate colors. Analysis was performed based upon the percentage of deposition of collagen in the green image compared to the overall area of the kidneys.
Tissues harvested 21 days following completion of antibiotic therapy were subjected to trichome staining to assess for global collagen deposition. After removing artifacts (to ensure only parenchyma was included in the analysis), a color deconvolution plugin was used for ImageJ to divide the images into the respective three colors of the trichrome stain. A threshold was set and collagen was quantified as a percentage of green color in respect to the area of the entire kidney (FIG. 13).

[4] = Testis weight vs contralateral testis 30 days after torsion (testicular atrophy); format: in vivo, CD1 mice; settings: 30 days after reperfusion, vs untreated
Method: (§1) Unilateral testicular torsion was induced in mature male CD1 mice by rotating the right testicle 720 degrees for 2 hours. Treatment with cytisine or varenicline was initiated one hour prior or one hour after the creation of testicular torsion. Testes were harvested 18 hours and 30 days following reperfusion. The acute inflammatory response was quantified with FACS analysis, […], reduced glutathione levels and quantification of the expression of IRI markers. Long term (30 day) outcomes were assessed by histologic evaluation, quantification of the expression of pro-fibrotic genes and measurement of testicular weight.
(§2) Mice underwent testicular torsion as previously described (Lysiak 2001). Briefly, mice were anesthetized with isoflurane over a heating pad. The right testis was delivered through a low scrotal incision and rotated counterclockwise 720 degrees to induce ischemia for 2 hours. […] All animals were injected with long-acting buprenorphine (0.1 mg/kg) for long-term pain control prior to being recovered from anesthesia. Mice were euthanized either 18 hours or 30 days following torsion. Mice kept for 30 days after surgery were weighed on a weekly basis.
(§3) Cytisine (Sigma-Aldrich, St. Louis, MO) was administered intraperitoneally at a dose of 0.1 μg/gram either 1 hour before torsion or 1 hour after torsion (1 hour prior to detorsion). Varenicline ([…]) was administered as an intraperitoneal injection one hour after the onset of torsion and then continued every 12 hours for a total of 4 doses.
The degree of testicular atrophy was determined by comparing the weight of the torsed testis to the contralateral control testis 30 days after reperfusion.

α7nAChR = α7nAChR (Homo sapiens, UniProt P36544); settings: peak concentrations in smokers / levels with therapeutic dosing in humans (Campling 2013); cited from earlier work
[5] = Masson trichrome staining and ImageJ quantification of collagen in testis 30 days after torsion; format: in vivo, CD1 mice; settings: 30 days following torsion, vs untreated, cytisine p<0.01, varenicline p<0.0001
Method: as §2, §3
Testis tissue was harvested and stored in 70% ethanol. Fixation, embedding, sectioning, and staining were performed by the research pathology core at George Washington University. Sections were cut at a thickness of […]. Tissues were stained for H&E or Masson trichrome. Photographs were scanned at 20× resolution with Olympus VS120 virtual slide microscope system. TIF images were analyzed with ImageJ Fiji software as previously described (Caetano, Fronza et al. 2016). The color deconvolution plugin was used to perform ImageJ analysis on an area measuring 3000 square pixels. Automatic thresholding was performed. The amount of collagen in each area is expressed as the percentage of blue pixels in the image area taken as an average of 3 non-overlapping measurements.

[6] = tested on: oxidative stress within the testis; assay: Myeloperoxidase activity and reduced glutathione levels in testis after testicular torsion; format: in vivo, CD1 mice; settings: cytisine an hour prior to onset of torsion; vs untreated controls
Method: as §2, with “Mice were euthanized either 18 hours or 30 days following torsion.” left out
as §3
Tissues were harvested and stored at −80° C. until use. Glutathione reductase activity was measured by use of glutathione reductase assay Kit (Sigma-Aldrich, St. Louis, MO). Testis tissue was homogenized in 5% sulfosalicylic Acid (SSA) solution. Samples were then centrifuged and supernatant was reserved. Supernatants were added to a reaction mixture containing 95 mM potassium phosphate buffer, pH 7.0, 0.95 mM EDTA, 0.038 mg/mL NADPH, 0.031 mg/mL DTNB, 0.115 units/mL glutathione reductase, and 0.24% SSA. Absorbance at 412 nm was recorded. Glutathione results were expressed as nm GSH per mL sample.
Following an ischemic event, the initial inflammatory response is characterized by an increase in oxidative stress and production of reactive oxygen species. In order to determine the effect of cytisine treatment on the level of reactive oxygen species (ROS) following testicular torsion, testicular levels of myeloperoxidase (MPO), a marker of neutrophil activation, and reduced glutathione (GSH) levels (an indirect measure of oxidative stress within the testis) were measured.

[7] = tested on: pro-fibrotic genes Col1, Col3, Vim, SMA; assay: RT-PCR of pro-fibrotic markers in testis 30 days after torsion; format: in vivo, CD1 mice; settings: for relative expression of collagen 1 (Col1) / relative expression of collagen 3 (Col3) / relative expression of smooth muscle actin (Sma) / relative expression of vimentin (Vim): 30 days following torsion, vs untreated
Method: as §2, §3
RNA was isolated from testis tissue using RNEasy mini kit (Qiagen, Hilden, Germany) using the manufacturer's protocol. RNA concentration was measured with Nanodrop 8000 (Thermo Scientific, Waltham, MA). cDNA was synthesized using Superscript First-Strand Synthesis system for RT-PCR (Invitrogen, Carlsbad, CA) on a GeneAmp PCR System 9700 (Applied Biosystems, Foster City, CA) Real-Real-time PCR was performed using QuantStudio 7 Flex (Applied Biosystems, Foster City, CA). Software Quantstudio Real-Time PCR Software (Thermo Fisher Scientific, Waltham, MA). TaqMan Gene Expression Assays (Applied Biosystems, Foster City, CA). Standard TaqMan primers were used for Col1, Col3, Vim, SMA.

[8] = tested on: CD45+ immune cells in the torsed testis; assay: Flow cytometry of CD45+ immune cell infiltrate in testis after testicular torsion; format: in vivo, CD1 mice; settings: cytisine 0.1 μg/gram i.p. 1 hour before torsion; 18 hours after reperfusion; vs mice without cytisine; P<0.0001
Method: as §1
Mice underwent testicular torsion as previously described (Lysiak 2001). Briefly, mice were anesthetized with isoflurane over a heating pad. […]
Eighteen hours after reperfusion of the testis in the cytisine group and 48 hours after reperfusion in the varenicline group, bilateral testes were harvested, homogenized and digested with digestion solution containing 0.5% FBS, 20 mM HEPES, RPMI Medium, 0.057 U/ml DNase I, 1 mg/ml collagenase b. Cells were washed, counted with a hemocytometer and 1 million then diluted to 1 million cells per mL. […] For each sample 300,000 live cells were counted using BD FACSCalibur (BD Biosciences, San Jose, CA) and analyzed with FlowJo 9.0 software (TreeStar, Ashland, OR).

[9] = cited from earlier work
[10] = tested on: adhesion molecules E-selectin, ICAM-1 and VCAM-1; settings: Saeed 2005; cited from earlier work
[11] = administered prior to testicular reperfusion
[12] = administration prior to warm renal ischemia (Gigliotti 2013)

α7nAChR, sequence (P36544 23-502): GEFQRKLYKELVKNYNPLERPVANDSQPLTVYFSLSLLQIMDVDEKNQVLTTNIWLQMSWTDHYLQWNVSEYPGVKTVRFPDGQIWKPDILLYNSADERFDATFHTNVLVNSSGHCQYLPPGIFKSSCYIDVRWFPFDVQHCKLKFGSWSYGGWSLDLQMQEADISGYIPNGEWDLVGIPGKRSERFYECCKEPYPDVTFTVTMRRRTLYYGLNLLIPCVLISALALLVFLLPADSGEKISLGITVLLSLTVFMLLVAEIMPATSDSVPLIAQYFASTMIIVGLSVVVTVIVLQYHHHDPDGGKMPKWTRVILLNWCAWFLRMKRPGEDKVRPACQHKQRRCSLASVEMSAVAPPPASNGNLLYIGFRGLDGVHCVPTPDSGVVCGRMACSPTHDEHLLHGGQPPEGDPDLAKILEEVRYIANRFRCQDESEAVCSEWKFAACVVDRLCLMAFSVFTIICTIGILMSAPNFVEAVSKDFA

Compound: COc1cc(C(C)=O)ccc1O [Apocynin]
- testicular myeloperoxidase activity [1]: decrease testicular myeloperoxidase activity
- long term spermatogenesis [1]: preserve long term spermatogenesis

Compound: Cc1ccc(-c2ncc(Cl)cc2-c2ccc(S(C)(=O)=O)cc2)cn1 [Etoricoxib]
- apoptosis [1, 11]: decrease apoptosis
- oxidative stress [1, 11]: decrease

Compound: [Zn] [Zinc]
- testicular myeloperoxidase activity [1]: decrease testicular myeloperoxidase activity
- long term spermatogenesis [1]: preserve long term spermatogenesis

Compound: CO/N=C(\C(=O)N[C@@H]1C(=O)N2C(C(=O)O)=C(CSc3nc(=O)c(=O)[nH]n3C)CS[C@H]12)c1csc(N)n1 [ceftriaxone]
- bacterial growth from cultured kidneys [2]: lack of bacterial growth
- collagen deposition in the kidneys (percentage of green pigment per area of entire kidney) [3]: significantly higher

Compound: O=c1cccc2n1C[C@@H]1CNC[C@H]2C1 [cytisine]
- testicular atrophy (weight of torsed testis vs contralateral control testis) ([4]; drug given an hour after the onset of torsion): limited long term testicular atrophy
- testicular atrophy (weight of torsed testis vs contralateral control testis) ([4]; drug given an hour after the onset of torsion, listed as Cytisine): limited testicular atrophy
- testicular atrophy (weight of torsed testis vs contralateral control testis) ([4]; drug given an hour prior to torsion, p<0.05): significantly less testicular atrophy; also recorded: decreased testicular atrophy
- activation of α7nAChR at clinically reached concentrations (α7nAChR): do not activate α7nAChR
- collagen content of testis (trichrome staining, percentage of collagen) [5]: untreated group had significantly higher collagen content; also recorded: reduced histologic evidence of testicular fibrosis
- collagen content of testis (trichrome staining, percentage of collagen) ([5]; listed as Cytisine): significantly higher percentage of collagen in the untreated animals
- myeloperoxidase activity in testis [6]: decreased levels of myeloperoxidase activity
- reduced glutathione levels in testis [6]: increased levels reduced glutathione
- relative expression of collagen 1 (Col1) [7]: reduced the expression; also recorded: significantly decreased
- relative expression of collagen 3 (Col3) [7]: reduced the expression; also recorded: significantly decreased
- relative expression of smooth muscle actin (Sma) [7]: reduced the expression; also recorded: significantly decreased
- relative expression of vimentin (Vim) [7]: reduced the expression; also recorded: significantly decreased
- relative expression of collagen 1 (Col1) ([7]; listed as Cytisine): significantly decreased
- relative expression of collagen 3 (Col3) ([7]; listed as Cytisine): significantly decreased
- relative expression of smooth muscle actin (Sma) ([7]; listed as Cytisine): significantly decreased
- relative expression of vimentin (Vim) ([7]; listed as Cytisine): significantly decreased
- expression of pro-fibrotic genes / genetic markers of testicular fibrosis ([7]; long term (30 day) outcome, genes not itemised): decreased expression of pro-fibrotic genes
- CD45+ immune cells in the torsed testis [8]: significantly decreased CD45+ immune cells; also recorded: decreases the number of CD45+ cells
- acute immune infiltrate after warm renal ischemia [9, 12]: reduced the acute immune infiltrate
- long term renal fibrosis after warm renal ischemia [9, 12]: prevented long term renal fibrosis
- long term renal function after warm renal ischemia [9, 12]: preserved long term renal function

Compound: CN1CCC[C@H]1c1cccnc1 [nicotine]
- activation of α7nAChR at clinically reached concentrations (α7nAChR): do not activate α7nAChR
- expression of adhesion molecules such as E-selectin, ICAM-1 and VCAM-1 [10]: decreasing the expression of adhesion molecules
- protection of the kidney from IRI ([9]; mouse, after renal artery ligation (Sadis 2007, Yeboah 2008)): protects the mouse kidney from IRI
